Four molecules from US10954225B2, “Selective NR2B antagonists” (Bristol-Myers Squibb Company, priority 2015, dated 2021) can be followed below.

In test [1] the target is NR2B-subtype NMDA receptors (Rattus norvegicus (Rat), UniProt P35439+Q00960). The test is described as follows: Radioligand binding assay (3H Ro 25-6981 competition, rat forebrain membranes). Conditions: 3H Ro 25-6981 (4 nM). Here is the method:
Radioligand Binding Assay.
Binding experiments to determine binding to NR2B-subtype NMDA receptors were performed on forebrains of 8-10 weeks old male Sprague Dawley rats (Harlan, Netherlands) using ^3H Ro 25-6981 (Mutel V; Buchy D; Klingelschmidt A; Messer J; Bleuel Z; Kemp J A; Richards J G. Journal of Neurochemistry, 1998, 70(5):2147-2155. Rats were decapitated without anesthesia using a Guillotine (approved by animal ethics committee) and the harvested brains were snap-frozen and stored at −80° C. for 3-6 months for membrane preparation.
For membrane preparation, rat forebrains were thawed on ice for 20 minutes in homogenization buffer composed of 50 mM KH2PO4 (pH adjusted to 7.4 with KOH), 1 mM EDTA, 0.005% Triton X 100 and protease inhibitor cocktail (Sigma Aldrich). Thawed brains were homogenized using a Dounce homogenizer and centrifuged at 48000×g for 20 min. The pellet was resuspended in cold buffer and homogenized again using a Dounce homogenizer. Subsequently, the homogenate was aliquoted, snap-frozen and stored at −80° C. for not more than 3-4 months.
To perform the competition binding assay, thawed membrane homogenate was added to each well of a 96-well plate (20 μg/well). […] The filter plates were dried at 50° C. for 20 mins, incubated with microscint 20 for 10 minutes and finally, the counts were read on TopCount (Perkin Elmer).

The next test concerns mice. Nature of the test: Mouse Forced Swim Test (mFST). It counts as in vivo. Conditions: 1 mg/Kg i.v., 15 min before swim session. Here is the method: Mouse Forced Swim Test (mFST).
Forced Swim Test (FST) is an animal model used to assess antidepressant compounds in preclinical studies. The FST was performed similar to the method of Porsolt et al. with modifications (Porsolt R D, Bertin A, Jalfre M. Behavioral despair in mice: a primary screening test for antidepressants. Arch Int Pharmacodyn Ther 1977; 229:327-36). In this paradigm, mice are forced to swim in an inescapable cylinder filled with water. Under these conditions, mice will initially try to escape and eventually develop immobility behavior; this behavior is interpreted as a passive stress-coping strategy or depression-like behavior. […] The duration of immobility was evaluated during the total 6 min of the test and expressed as duration (sec) of immobility. […] All testing sessions were recorded with a video camera (Sony Handicam, Model: DCR-HC38E; PAL) and scoring was done using the Forced Swim Scan, Version 2.0 software (Clever Systems Inc., Reston, Va., USA; see Hayashi E, Shimamura M, Kuratani K, Kinoshita M, Hara H. Automated experimental system capturing three behavioral components during murine forced swim test. Life Sci. 2011 Feb. 28; 88(9-10):411-7 and Yuan P, Tragon T, Xia M, Leclair C A, Skoumbourdis A P, Zheng W, Thomas C J, Huang R, Austin C P, Chen G, Guitart X. Phosphodiesterase 4 inhibitors enhance sexual pleasure-seeking activity in rodents. […]

The target of test [2] is brain-resident NR2B-subtype receptors (Mus musculus (Mouse), UniProt P35438+Q01097). Nature of the test: Ex vivo occupancy assay. It counts as in vivo. Conditions: animals after dosing; no dose stated. Here is the method: 7-9 weeks old male CD-1 mice were dosed intravenously in a vehicle consisting of 10% dimethylacetamide, 40% PEG-400, 30% hydroxypropyl betacyclodextrin, and 30% water with experimental compounds and the forebrains were harvested 15 minutes post-dosing by decapitation. The brain samples were immediately snap-frozen and stored at −80° C. On the following day, the dosed brain samples were thawed on ice for 15-20 minutes followed by homogenization using Polytron for 10 seconds in cold homogenization buffer composed of 50 mM KH2PO4 (pH adjusted to 7.4 with KOH), 1 mM EDTA, 0.005% Triton X 100 and protease inhibitor cocktail (Sigma Aldrich). The crude homogenates were further homogenized using a Dounce homogenizer and the homogenized membrane aliquots from all animals were flash-frozen and stored at −80° C. until further use. The whole homogenization process was performed on ice. For determining occupancy, the membrane homogenates were first thawed on ice and then needle-homogenized using a 25 gauge needle. The homogenized membrane (6.4 mg/ml) was added to a 96-well plate followed by addition of ^3H Ro 25-6981 (6 nM). […] The filter plates were dried at 50° C. for 20 mins, incubated with microscint 20 for 10 minutes and read on TopCount (Perkin Elmer). […] Non-specific binding was determined using 10 μM Ro 25-6981 added to the wells containing membrane homogenates from vehicle-dosed animals. […]
Sequence of brain-resident NR2B-subtype receptors (Q01097 27-1482, other chains not shown): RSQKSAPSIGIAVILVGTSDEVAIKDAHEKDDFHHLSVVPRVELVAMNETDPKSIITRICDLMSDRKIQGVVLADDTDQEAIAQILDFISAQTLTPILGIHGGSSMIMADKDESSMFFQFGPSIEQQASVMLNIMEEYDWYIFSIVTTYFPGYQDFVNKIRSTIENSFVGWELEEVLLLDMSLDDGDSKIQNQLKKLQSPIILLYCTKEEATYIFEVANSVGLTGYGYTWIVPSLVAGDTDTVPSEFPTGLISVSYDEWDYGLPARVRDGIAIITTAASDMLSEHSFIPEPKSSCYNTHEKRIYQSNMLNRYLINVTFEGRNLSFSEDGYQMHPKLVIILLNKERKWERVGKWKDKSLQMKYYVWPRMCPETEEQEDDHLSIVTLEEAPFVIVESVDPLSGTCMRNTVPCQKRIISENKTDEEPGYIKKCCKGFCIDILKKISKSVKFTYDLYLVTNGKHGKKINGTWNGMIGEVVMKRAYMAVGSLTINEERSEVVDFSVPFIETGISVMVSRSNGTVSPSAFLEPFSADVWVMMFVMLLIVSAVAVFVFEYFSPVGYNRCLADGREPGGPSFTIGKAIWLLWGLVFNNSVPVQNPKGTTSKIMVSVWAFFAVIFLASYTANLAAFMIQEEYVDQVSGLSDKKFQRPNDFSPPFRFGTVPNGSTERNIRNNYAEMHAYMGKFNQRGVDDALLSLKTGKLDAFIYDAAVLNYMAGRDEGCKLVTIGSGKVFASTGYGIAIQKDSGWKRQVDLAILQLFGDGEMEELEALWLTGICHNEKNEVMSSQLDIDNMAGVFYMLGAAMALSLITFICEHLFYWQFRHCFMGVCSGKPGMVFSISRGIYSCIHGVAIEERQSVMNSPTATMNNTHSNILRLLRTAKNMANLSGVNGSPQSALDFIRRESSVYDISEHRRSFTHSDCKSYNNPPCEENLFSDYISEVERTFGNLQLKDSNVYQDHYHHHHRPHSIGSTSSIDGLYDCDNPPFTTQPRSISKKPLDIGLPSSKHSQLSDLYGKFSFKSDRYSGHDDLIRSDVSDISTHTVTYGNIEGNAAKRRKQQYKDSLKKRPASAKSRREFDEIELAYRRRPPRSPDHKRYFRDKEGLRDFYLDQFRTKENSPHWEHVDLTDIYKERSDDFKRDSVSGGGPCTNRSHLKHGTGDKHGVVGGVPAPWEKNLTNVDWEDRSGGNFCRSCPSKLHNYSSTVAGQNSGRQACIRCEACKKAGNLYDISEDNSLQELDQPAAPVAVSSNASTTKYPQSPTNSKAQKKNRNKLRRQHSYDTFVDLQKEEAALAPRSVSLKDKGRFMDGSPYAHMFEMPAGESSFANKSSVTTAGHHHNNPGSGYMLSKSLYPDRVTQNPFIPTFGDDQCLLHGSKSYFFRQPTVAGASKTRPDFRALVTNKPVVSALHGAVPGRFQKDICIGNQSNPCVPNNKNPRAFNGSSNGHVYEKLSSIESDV

Sequence of NR2B-subtype NMDA receptors (Q00960 27-1482, other chains not shown): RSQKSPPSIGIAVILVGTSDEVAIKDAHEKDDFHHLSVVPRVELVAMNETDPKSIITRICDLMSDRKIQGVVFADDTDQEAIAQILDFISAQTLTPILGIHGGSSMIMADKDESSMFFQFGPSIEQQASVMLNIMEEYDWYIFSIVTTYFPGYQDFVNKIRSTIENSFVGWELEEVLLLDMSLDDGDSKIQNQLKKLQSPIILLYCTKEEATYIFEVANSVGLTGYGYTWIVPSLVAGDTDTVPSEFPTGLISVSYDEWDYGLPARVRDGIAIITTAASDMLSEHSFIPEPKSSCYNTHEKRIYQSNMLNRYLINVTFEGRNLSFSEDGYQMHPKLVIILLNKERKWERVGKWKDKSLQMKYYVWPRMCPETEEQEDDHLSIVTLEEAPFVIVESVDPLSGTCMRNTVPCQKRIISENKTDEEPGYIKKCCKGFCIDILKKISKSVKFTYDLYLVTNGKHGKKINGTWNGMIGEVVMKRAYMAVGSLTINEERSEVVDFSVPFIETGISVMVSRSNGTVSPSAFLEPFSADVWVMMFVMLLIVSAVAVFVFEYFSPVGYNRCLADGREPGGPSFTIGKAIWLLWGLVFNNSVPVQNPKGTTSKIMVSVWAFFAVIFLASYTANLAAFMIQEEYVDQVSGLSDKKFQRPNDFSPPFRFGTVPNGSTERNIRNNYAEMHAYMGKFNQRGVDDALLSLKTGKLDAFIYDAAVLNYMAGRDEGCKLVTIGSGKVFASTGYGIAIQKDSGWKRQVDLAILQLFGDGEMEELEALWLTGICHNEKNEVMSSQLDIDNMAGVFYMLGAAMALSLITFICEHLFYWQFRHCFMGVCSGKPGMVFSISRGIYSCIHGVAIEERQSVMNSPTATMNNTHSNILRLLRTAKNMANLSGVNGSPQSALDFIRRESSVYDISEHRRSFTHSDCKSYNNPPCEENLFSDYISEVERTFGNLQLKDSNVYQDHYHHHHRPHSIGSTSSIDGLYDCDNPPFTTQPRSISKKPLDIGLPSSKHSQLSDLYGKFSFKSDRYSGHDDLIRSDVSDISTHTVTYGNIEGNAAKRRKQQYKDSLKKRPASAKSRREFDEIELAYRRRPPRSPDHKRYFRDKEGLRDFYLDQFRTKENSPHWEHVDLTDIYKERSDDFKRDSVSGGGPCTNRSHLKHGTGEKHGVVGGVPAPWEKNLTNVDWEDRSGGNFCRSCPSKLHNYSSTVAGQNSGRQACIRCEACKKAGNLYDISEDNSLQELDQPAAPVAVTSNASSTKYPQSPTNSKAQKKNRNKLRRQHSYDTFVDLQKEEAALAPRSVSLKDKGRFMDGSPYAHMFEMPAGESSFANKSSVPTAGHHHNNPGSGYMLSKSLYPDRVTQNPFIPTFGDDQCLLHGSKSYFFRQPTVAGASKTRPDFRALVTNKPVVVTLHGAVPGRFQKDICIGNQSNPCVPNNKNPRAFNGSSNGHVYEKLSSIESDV

Broadly, the Ki is a dissociation constant, usually derived from enzyme kinetics or from competition with a known ligand. A low value points to tighter binding. On to `Cc1ccc(CN2OCCC(N3CCC(c4ccc(O)cc4)CC3)C2=O)cc1` (racemic) [Example 4, 4-(4-(4-hydroxyphenyl)piperidin-1-yl)-2-(4-methylbenzyl)-1,2-oxazinan-3-one], for which the Ki in test [1] worked out at 5.49 nM. In other words, the single-digit nanomolar range.

Regarding `Cc1ccc(CN2OCC(N3CCN(c4ccc(O)cn4)CC3)C2=O)cc1` (single isomer, unassigned) [10,P-1, 4-(4-(5-hydroxypyridin-2-yl)piperazin-1-yl)-2-(4-methylbenzyl)isoxazolidin-3-one], the immobility time entry in the test on mice was “statistically significant decrease in immobility time”.

Consider `O=C1C(N2CCC(c3ccc(O)cn3)CC2)CON1Cc1ccc(F)cc1` (racemic) [Example 3, 2-(4-fluorobenzyl)-4-(4-(5-hydroxypyridin-2-yl)piperidin-1-yl)isoxazolidin-3-one], for which the Ki in test [1] was 15.1 nM.

Turning to `Cc1ccc(CN2OCC(N3CCC(c4ccc(O)cc4)CC3)C2=O)cc1` (single isomer, unassigned) [2,P-2, 4-(4-(4-hydroxyphenyl)piperidin-1-yl)-2-(4-methylbenzyl)isoxazolidin-3-one], the “occupancy of brain-resident NR2B-subtype receptors (in words)” value in test [2] is recorded as “occupies brain-resident NR2B-subtype receptors”.
